Entries after “also recorded” stand apart in the source; their conditions may differ.
Experiments:
C. albicans CAF2-1 = assay: microbe, parasite or virus in culture; format: cell-based, Candida albicans; conditions: for effect of combination with higher Flc concentrations: KeP (0.39 uM) / KeOP (1.56 uM) combined with 3.25 and 6.25 uM Flc, CAF2-1
Experimental: The synergistic effects of KeOP/KeP with Flc were determined using the M27-A3 method with modifications. Flc and KeOP/KeP stock solutions in DMSO (10 mM) were (alone and simultaneously) diluted in RPMI-1640 medium to obtain final concentrations of^1/8; ^1/4; ^1/2; 1 × MIC50 towards C. albicans CAF2-1 strain in microdilution sterile plates (Sarstedt). Statistical significance analysis was performed using Student’s t-test ([…], unpaired) comparing viability in the presence of corresponding Flc concentrations with/without KeOP/KeP.

hASCs = assay: Confocal imaging of mitochondrial network (MitoRed) and F-actin (Phalloidin Atto 590) in hASCs; format: cell-based, human; conditions: 20 µM, 24 h
Experimental: The mitochondrial network was visualized using MitoRed staining. After 24-hours treatment with either Ke, KeP or KeOP, the media were removed and replaced with MitoRed dye in 1:1000 dilution in fresh complete media. Cells were incubated for 30 minutes at 37 °C, then washed with Phosphate Buffered Saline (PBS), fixed with 4% paraformaldehyde (PFA) solution, washed three times and nuclei were counterstained with diamidino-2-phenylindole (DAPI).
In order to perform F-actin imaging, cells were fixed with 4% PFA solution, washed with PBS and then permeabilized using 0.5% TX-100 (incubation 15 minutes, room temperature). The cells were rinsed and incubated with Phalloidin-Atto 590 solution in PBS (dilution 1:1000) at 37 °C for 30 minutes in the dark. After washing, the cells were counterstained with DAPI.
Cells were observed and images were taken using confocal microscopy performed with a Leica TCS-SP8 laser scanning confocal microscope. Data were further processed with the use of ImageJ software.

HepaRG cells = conditions: cited from earlier work
[1] = tested on: hASCs (human adipose-derived stromal cells); assay: Cytotoxicity IC50, TOX-8 resazurin assay, hASCs, 24 h; format: cell-based; conditions: hASCs, TOX-8 assay, 24 h
Experimental: Human Adipose Tissue-derived Stem Cells (hASCs) were isolated from subcutaneous adipose tissue fragments harvested from non-diabetic female donors (age range 33–38, n = 2) during standard surgical procedure of total hip arthroplasty. Immediately after collection of tissue, the samples were placed in sterile tissue-transport medium (Hank’s Balanced Salt Solution (HBSS) supplemented with 1% Penicillin/Streptomycin/Amphotericin B solution (P/S/A). Mesenchymal stromal cell isolation was performed using enzymatic digestion of extracellular matrix with collagenase type I. Before digestion, tissue specimens were washed twice with HBSS and incubated in collagenase type I solution (1 mg/mL) at 37 °C for 40 min. The digest was subsequently centrifuged (1200 × g; 10 minutes; room temperature) and the cell pellet was resuspended in Dulbecco’s modified Eagle’s medium (DMEM) with Nutrient F-12 Ham, 10% of Fetal Bovine Serum (FBS), and 1% of P/S/A, transferred to a culture flask, and kept in culture under optimal conditions (37 °C in a humidified atmosphere of 5% CO2). The medium was refreshed every 2–3 days. At 80–90% confluence, the cells were passaged using trypsin solution (TrypLE Express, Life Technologies, California, USA). At passage 3, hASCs were collected and cellular phenotype was confirmed by the high expression of markers CD44, CD29, CD73, CD105 and low expression of CD45. Moreover, the trilineage differentiation capacity of ASCs was confirmed as previously described.
The IC50 values were determined using in vitro Toxicology TOX-8 Assay Kit (resazurin based) according to the manufacturer’s protocol. For this assay, cells were seeded in a 96-well plate at a density of 5 × 10^3 cells/well. The cells were pre-incubated in drug-free complete medium for 24 h before adding various concentrations of the compounds to be investigated. Stock solutions of the compounds were prepared in DMSO following serial dilutions in DMEM with Nutrient F-12 Ham complete medium. The cells exposure period was 24 h. After that time media were replaced with 10% v/v resazurin dye solution in fresh complete culture medium. Incubation was carried out for 2 h at 37 °C in the CO2 incubator. Reduction of the dye was measured spectrophotometrically at 600 nm and 690 nm reference wavelength (Epoch, Biotek). Absorbance measurements allowed the determination of viable treated cells relative to untreated controls using the inflection point of a dose-response graph. IC50 values were estimated as duplicates of triplicate readings in two independent experiments.

[2] = Candida albicans, CAF21, read-out: Viability of C. albicans CAF2-1

Compound: O=P(CN1CCN(c2ccc(OC[C@H]3CO[C@](Cn4ccnc4)(c4ccc(Cl)cc4Cl)O3)cc2)CC1)(c1ccccc1)c1ccccc1 (racemic) [KeOP, Ph2P(O)CH2-Ke]
- viability at 0.1 µM (C. albicans CAF2-1; [2]): 102 ± 2.22%
- viability at 0.2 µM (C. albicans CAF2-1; [2]): 93.9 ± 7.22%
- viability at 0.39 µM (C. albicans CAF2-1; [2]): 91.2 ± 10.7%
- effect of combination with higher Flc concentrations (C. albicans CAF2-1): fungicidal effect

Compound: Clc1ccc([C@@]2(Cn3ccnc3)OC[C@H](COc3ccc(N4CCN(CP(c5ccccc5)c5ccccc5)CC4)cc3)O2)c(Cl)c1 (racemic) [KeP, Ph2PCH2-Ke]
- mitochondrial membrane potential (MitoRed staining) (hASCs): lowest mitochondrial membrane potential
- number of mitochondria (MitoRed staining) (hASCs): lowest number of mitochondria
- MIC50 of Flc in combination (C. albicans CAF2-1; C. albicans CAF2-1, with KeP (0.39 uM), reduced from 6.25 uM): 1.56 µM
- viability at 0.39 µM (C. albicans CAF2-1; [2]): 115 ± 9.06%
- viability at 0.78 µM (C. albicans CAF2-1; [2]): 102 ± 1.98%
- viability at 1.56 µM (C. albicans CAF2-1; [2]): 96.8 ± 3.21%
- effect of combination with higher Flc concentrations (C. albicans CAF2-1): fungicidal effect

Compound: CC(=O)N1CCN(c2ccc(OCC3COC(Cn4ccnc4)(c4ccc(Cl)cc4Cl)O3)cc2)CC1 (stereo not shown) [Ke, ketoconazole, reference compound]
- concentration at which cytotoxicity started (HepaRG cells): 100 µM

Compound: S=P(CN1CCN(c2ccc(OC[C@H]3CO[C@](Cn4ccnc4)(c4ccc(Cl)cc4Cl)O3)cc2)CC1)(c1ccccc1)c1ccccc1 [KeSP, Ph2P(S)CH2-Ke]
- IC50 (cytotoxicity, hASCs viability) [1]: not cytotoxic in the tested concentration range; also recorded: not toxic

Source: paper PMC6838151 (Scientific Reports, 2019)
